Marks after values point to notes of the source that are not given here.
Assay: Study 2: body weight and liver weight in high fat diet induced obese mice
Assay type: in vivo, C57 mice
Conditions: for LIVER WEIGHT: male group, Day 57, High fat diet Control 1.60 ± 0.35
Source text: The animals were fed ad libitum with AMRUT Laboratory Animal Feed manufactured by Pranav Agro Industries Limited, Sangli, Maharastra throughout the acclimatization. Open Source Diet D12450B diet (with 10 kcal % Fat) and Open Source Diet D12492 High fat diet (with 60 kcal % Fat) manufactured by Research Diet Inc, USA procured from Indus Marketing, Hyderabad, Andhra Pradesh, INDIA was used for induction of obesity and the main study.
The animals were divided into 5 groups viz., Group 1, 2, 3, 4 and 5 consisting of 10 animals (5 male and 5 female) each.
The G1 Control group animals were fed with normal control diet feed D12450B containing 10 kcal % fat and the G2 to G5 group animals were fed with high fat diet feed D12492 containing 60 kcal % fat during the induction of obesity and during main study.
The main study was started after the induction of obesity. The 3 doses of Calebin A was administered to animals from Day 29 daily consecutively for a period of 28 days. The feeding of diets continued in the main study in a similar way as performed in induction of obesity. The G1 Control and G2 High fat diet control group animals were administered with 0.5% CMC (Carboxy Methyl Cellulose) while other group animals received test item from Day 29 to Day 56 of the study period. The dose volume of administration was maintained according to the weekly body weight of individual animals. The total duration of the study was 61 days (5 days Acclimatization period+28 days Induction of obesity+28 days Main study).
Individual animal body weights were recorded on the day of receipt on Day 1 and weekly (±1 day) thereafter during the study period.
Further, after completion of the study period (Day 57) the animals were humanely sacrificed by exposure to excess CO2 in gas chamber and organ weights were noted. The brain, thymus, liver, adrenals, kidneys (paired), spleen, heart and ovaries/testes (paired) from all animals were trimmed off any adherent tissue, as appropriate and weighed wet as soon as possible to avoid drying. While in general, there was no statistically significant difference in organ weights in males and females, organ specific improvements in weight, example for liver in the male group was observable (See TABLE X). […] It may be noted that Behnke, A. R. 1953. Lean body mass. A.M.A. Arch. Int. Med. 91, 585 indicates liver as an index of lean body mass promotion and H. F. Kraybill et al, J ANIM SCI 1954, 13:548-555 indicate that other visceral organs may also be equally predictive of lean body mass promotion. It is quite possible that statistical significance in terms of sustainable increase in organ weights without indications of toxicity may be achieved with a larger sample size (more number of tested animals) over extended testing periods.

COc1cc(/C=C/C(=O)COC(=O)/C=C/c2ccc(O)c(OC)c2)ccc1O [Calebin A]
BODY WEIGHT (females, G3 5 mg/kg + High fat diet, Day 1 (obesity induction, before dosing)): 22.36 ± 0.65 grams
BODY WEIGHT (females, G3 5 mg/kg + High fat diet, Day 8 (obesity induction, before dosing)): 23.18 ± 0.79 grams
BODY WEIGHT (females, G3 5 mg/kg + High fat diet, Day 15 (obesity induction, before dosing)): 24.36 ± 0.87 grams
BODY WEIGHT (females, G3 5 mg/kg + High fat diet, Day 22 (obesity induction, before dosing)): 25.66 ± 0.48 grams
BODY WEIGHT (females, G3 5 mg/kg + High fat diet, Day 29 (start of daily dosing)): 27.40*^a ± grams
BODY WEIGHT (females, G3 5 mg/kg + High fat diet, Day 36 (dosing Day 29-56)): 28.18**^a ± grams
BODY WEIGHT (females, G3 5 mg/kg + High fat diet, Day 43 (dosing Day 29-56)): 28.46*^a,**^b ± grams
BODY WEIGHT (females, G3 5 mg/kg + High fat diet, Day 50 (dosing Day 29-56)): 28.20***^b ± grams
BODY WEIGHT (females, G3 5 mg/kg + High fat diet, Day 56 (dosing Day 29-56)): 28.12***^b ± grams
BODY WEIGHT (females, G4 10 mg/kg + High fat diet, Day 1 (obesity induction, before dosing)): 23.16 ± 0.99 grams
BODY WEIGHT (females, G4 10 mg/kg + High fat diet, Day 8 (obesity induction, before dosing)): 24.16 ± 1.29 grams
BODY WEIGHT (females, G4 10 mg/kg + High fat diet, Day 15 (obesity induction, before dosing)): 25.62 ± 1.26 grams
BODY WEIGHT (females, G4 10 mg/kg + High fat diet, Day 22 (obesity induction, before dosing)): 26.76 ± 1.27 grams
BODY WEIGHT (females, G4 10 mg/kg + High fat diet, Day 29 (start of daily dosing)): 28.46***^a ± grams
BODY WEIGHT (females, G4 10 mg/kg + High fat diet, Day 36 (dosing Day 29-56)): 28.64***^a ± grams
BODY WEIGHT (females, G4 10 mg/kg + High fat diet, Day 43 (dosing Day 29-56)): 28.16*^a,***^b ± grams
BODY WEIGHT (females, G4 10 mg/kg + High fat diet, Day 50 (dosing Day 29-56)): 27.54***^b ± grams
BODY WEIGHT (females, G4 10 mg/kg + High fat diet, Day 56 (dosing Day 29-56)): 27.04***^b ± grams
BODY WEIGHT (females, G5 20 mg/kg + High fat diet, Day 1 (obesity induction, before dosing)): 23.52 ± 1.10 grams
BODY WEIGHT (females, G5 20 mg/kg + High fat diet, Day 8 (obesity induction, before dosing)): 24.66 ± 1.24 grams
BODY WEIGHT (females, G5 20 mg/kg + High fat diet, Day 15 (obesity induction, before dosing)): 26.26 ^a ± 1.05 ^ grams
BODY WEIGHT (females, G5 20 mg/kg + High fat diet, Day 22 (obesity induction, before dosing)): 27.26 ^a ± 1.25 ^ grams
BODY WEIGHT (females, G5 20 mg/kg + High fat diet, Day 29 (start of daily dosing)): 28.74***^a ± grams
BODY WEIGHT (females, G5 20 mg/kg + High fat diet, Day 36 (dosing Day 29-56)): 28.40**^a ± grams
BODY WEIGHT (females, G5 20 mg/kg + High fat diet, Day 43 (dosing Day 29-56)): 27.80***^b ± grams
BODY WEIGHT (females, G5 20 mg/kg + High fat diet, Day 50 (dosing Day 29-56)): 27.44***^b ± grams
BODY WEIGHT (females, G5 20 mg/kg + High fat diet, Day 56 (dosing Day 29-56)): 27.10***^b ± grams
effect on body weights of high fat diet induced obese animals (male and female C57 animals, 5, 10 and 20 mg/kg body weight): had an effect in decreasing the body weights
LIVER WEIGHT (G3 5 mg/kg + High fat diet): 1.41 ± 0.17 g
LIVER WEIGHT (G4 10 mg/kg + High fat diet): 1.25 ± 0.17 g
LIVER WEIGHT (G5 20 mg/kg + High fat diet): 1.79 ± 0.19 g
BODY WEIGHT (males, G3 5 mg/kg + High fat diet, Day 1 (obesity induction, before dosing)): 25.02 ± 1.45 grams
BODY WEIGHT (males, G3 5 mg/kg + High fat diet, Day 8 (obesity induction, before dosing)): 25.78 ± 1.14 grams
BODY WEIGHT (males, G3 5 mg/kg + High fat diet, Day 15 (obesity induction, before dosing)): 27.68 ± 0.95 grams
BODY WEIGHT (males, G3 5 mg/kg + High fat diet, Day 22 (obesity induction, before dosing)): 29.98**^a ± 1.03 grams
BODY WEIGHT (males, G3 5 mg/kg + High fat diet, Day 29 (start of daily dosing)): 30.92**^a ± grams
BODY WEIGHT (males, G3 5 mg/kg + High fat diet, Day 36 (dosing Day 29-56)): 31.70*^a ± grams
BODY WEIGHT (males, G3 5 mg/kg + High fat diet, Day 43 (dosing Day 29-56)): 30.84***^b ± grams
BODY WEIGHT (males, G3 5 mg/kg + High fat diet, Day 50 (dosing Day 29-56)): 30.04***^b ± grams
BODY WEIGHT (males, G3 5 mg/kg + High fat diet, Day 56 (dosing Day 29-56)): 29.98***^b ± grams
BODY WEIGHT (males, G4 10 mg/kg + High fat diet, Day 1 (obesity induction, before dosing)): 25.28 ± 0.88 grams
BODY WEIGHT (males, G4 10 mg/kg + High fat diet, Day 8 (obesity induction, before dosing)): 25.82 ± 0.91 grams
BODY WEIGHT (males, G4 10 mg/kg + High fat diet, Day 15 (obesity induction, before dosing)): 27.58 ± 0.65 grams
BODY WEIGHT (males, G4 10 mg/kg + High fat diet, Day 22 (obesity induction, before dosing)): 29.92**^a ± 0.97 grams
BODY WEIGHT (males, G4 10 mg/kg + High fat diet, Day 29 (start of daily dosing)): 31.02**^a ± grams
BODY WEIGHT (males, G4 10 mg/kg + High fat diet, Day 36 (dosing Day 29-56)): 31.06*^b ± grams
BODY WEIGHT (males, G4 10 mg/kg + High fat diet, Day 43 (dosing Day 29-56)): 29.80***^b ± grams
BODY WEIGHT (males, G4 10 mg/kg + High fat diet, Day 50 (dosing Day 29-56)): 28.98***^b ± grams
BODY WEIGHT (males, G4 10 mg/kg + High fat diet, Day 56 (dosing Day 29-56)): 28.62***^b ± grams
BODY WEIGHT (males, G5 20 mg/kg + High fat diet, Day 1 (obesity induction, before dosing)): 25.88 ± 1.25 grams
BODY WEIGHT (males, G5 20 mg/kg + High fat diet, Day 8 (obesity induction, before dosing)): 26.66 ± 1.73 grams
BODY WEIGHT (males, G5 20 mg/kg + High fat diet, Day 15 (obesity induction, before dosing)): 28.94*^a ± 1.59^ grams
BODY WEIGHT (males, G5 20 mg/kg + High fat diet, Day 22 (obesity induction, before dosing)): 30.64**^a ± 1.16 grams
BODY WEIGHT (males, G5 20 mg/kg + High fat diet, Day 29 (start of daily dosing)): 31.86***^a ± grams
BODY WEIGHT (males, G5 20 mg/kg + High fat diet, Day 36 (dosing Day 29-56)): 31.48*^b ± grams
BODY WEIGHT (males, G5 20 mg/kg + High fat diet, Day 43 (dosing Day 29-56)): 29.12***^b ± grams
BODY WEIGHT (males, G5 20 mg/kg + High fat diet, Day 50 (dosing Day 29-56)): 27.74***^b ± grams
BODY WEIGHT (males, G5 20 mg/kg + High fat diet, Day 56 (dosing Day 29-56)): 27.54***^b ± grams

Reference: patent US9737502B2, “Calebin A for hepatic steatosis” (SAMI LABS LIMITED, priority 2011, dated 2017)
